Target: T1, mitochondrial branched-chain aminotransferase (mBCAT2) (Mus musculus, UniProt O35855)
T1 sequence (O35855 28-393): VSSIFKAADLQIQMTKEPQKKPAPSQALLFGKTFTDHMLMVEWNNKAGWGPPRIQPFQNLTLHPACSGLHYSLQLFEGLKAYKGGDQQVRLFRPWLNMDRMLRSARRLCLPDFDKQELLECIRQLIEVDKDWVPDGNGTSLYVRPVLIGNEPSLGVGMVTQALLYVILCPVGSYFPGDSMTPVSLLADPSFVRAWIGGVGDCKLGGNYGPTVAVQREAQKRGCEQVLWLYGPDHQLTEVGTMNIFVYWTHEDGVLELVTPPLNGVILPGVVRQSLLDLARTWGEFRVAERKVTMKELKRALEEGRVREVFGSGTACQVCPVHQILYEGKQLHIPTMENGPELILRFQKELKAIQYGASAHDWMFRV
Assay: LC-MS transamination assay with Michaelis–Menten kinetics
Type: biochemical

Structure (SMILES): C=C(CC(=O)O)C(=O)O [ITA, itaconate]
- Ki: 15.3 mM
